In ChEMBL document CHEMBL5506049, “Discovery of Novel Small-Molecule-Based Potential PD-L1/EGFR Dual Inhibitors with High Druggability for Glioblastoma Immunotherapy” (J Med Chem, 2024):

How the values were obtained:
[1] = Half life in Sprague-Dawley rat at 4 mg/kg, iv measured upto 72 hrs by (LC-MS)/MS analysis; format: ADME, organism-based; details: in vivo
[2] = AUC (0 to infinity) in Sprague-Dawley rat at 4 mg/kg, iv measured upto 72 hrs by (LC-MS)/MS analysis; format: ADME, organism-based; details: in vivo
cells = details: Homo sapiens, U87MG Human EGFR vIII, 72 h
Description: Antiproliferative activity against human U87vIII cells expressing EGFRvIII incubated for 72 hrs by MTT assay

[3] = MRT (0 to t) in Sprague-Dawley rat at 20 mg/kg, po measured upto 72 hrs by (LC-MS)/MS analysis; format: ADME, organism-based; details: in vivo
[4] = In vivo antitumor activity against […] GL261 cells xenografted in C57BL/6 mouse assessed as decrease in tumor volume at 100 mg/kg, IG treated for 21 days relative to control; format: functional; design: scale not given: the % may be the effect or the level left; details: time 21 day
[5] = MRT (0 to infinity) in Sprague-Dawley rat at 20 mg/kg, po measured upto 72 hrs by (LC-MS)/MS analysis; format: ADME, organism-based; details: in vivo
[6] = In vivo antitumor activity against […] GL261 cells xenografted in C57BL/6 mouse assessed as tumor growth inhibition (tumor volume decrease) at 50 mg/kg, IG treated for 21 days relative to control; format: functional; details: GL261, po, 504 h, time 21 day, read-out: TGI
[7] = Cmax in Sprague-Dawley rat at 4 mg/kg, iv measured upto 72 hrs by (LC-MS)/MS analysis; format: ADME, organism-based; details: in vivo
[8] = Toxicity in C57BL/6 mouse xenografted with […] GL261 cells assessed as cell necrosis in heart at 100 mg/kg, IG treated for 21 days by hematoxylin-eosin staining based microscopy assay; format: organism-based; details: in vivo, po, 504 h, time 21 day
[9] = MRT (0 to t) in Sprague-Dawley rat at 4 mg/kg, iv measured upto 72 hrs by (LC-MS)/MS analysis; format: ADME, organism-based; details: in vivo
U-251 = assay: cells; details: Homo sapiens, U-251, 72 h
Description: Antiproliferative activity against human U-251 cells incubated for 72 hrs by MTT assay

U-87 MG [10] = assay: Induction of cell cycle arrest in human U-87 MG cells assessed as accumulation of cells at G0/G1 phase at 0.5 uM incubated for 48 hrs by flow cytometry (reference value: 60.51%); format: functional, U-87MG ATCC
[11] = In vivo antitumor activity against […] GL261 cells xenografted in C57BL/6 mouse assessed as decrease in tumor weight at 100 mg/kg, IG treated for 21 days relative to control; format: functional; design: scale not given: the % may be the effect or the level left; details: time 21 day
[12] = Cmax in Sprague-Dawley rat at 20 mg/kg, po measured upto 72 hrs by (LC-MS)/MS analysis; format: ADME, organism-based; details: in vivo
U-87 MG [13] = assay: In vitro immunoregulatory effect in IFN-gamma stimulated human U-87 MG cells co-cultured with PHA-P stimulated with human Jurkat T cell assessed as cytotoxicity by measuring cell viability incubated for 48 hrs by CCK-8 assay relative to control; format: functional, cell-based; details: U-87MG ATCC, dose 0.0625-0.5 µM
Glioblastoma cell line = assay: Antitumor immunity against glioblastoma bearing C57BL/6 mouse model assessed as tumor infiltrating lymphocytes by measuring increase in CD3+CD4+T cells at 100 mg/kg, IG (reference value: 0.91%); format: functional

COc1cc2ncnc(Nc3cccc(Cl)c3F)c2cc1OCCCCNCc1c(OC)cc(OCc2cccc(-c3ccccc3)c2C)cc1OC
half-life [1]: 6.8 h | AUC(0-inf) [2]: 2910 ng·h/mL | IC50 (cells): 280 nM | MRT last at 72 h [3]: 17.5 h | Activity [4]: 89.7% | MRT inf [5]: 17.2 h | inhibition in vivo at 50 mg/kg [6]: 55.8% | Cmax [7]: 326 ng/mL | Activity [8]: Non-Toxic | MRT last at 72 h [9]: 12.7 h | IC50 (U-251): 1020 nM | Activity (U-87 MG [10]): 63.57% | Activity [11]: 92% | Cmax [12]: 255 ng/mL | Activity (U-87 MG [13]): Dose-Dependent Effect | Activity (Glioblastoma cell line): 3.74%
